Reference: ChEMBL document CHEMBL1201862, “PubChem BioAssay data set” (2004)
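Assay format: 96-well plates, 48-hour exposure. Here, GI50 denotes the concentration required for 50% inhibition of growth.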 The source made the active and inactive calls. Rule as the data show it: active = GI50 up to about 1.1 µM and inactive = higher.

Key:
Assay in all cases: NCI tumour cell line growth inhibition, 48 h
786-0 = test system: 786-0
K562 = test system: K562
UO-31 = test system: UO-31
SK-OV-3 = test system: SK-OV-3
SNB-19 = test system: SNB-19
SF-268 = test system: SF-268
TK-10 = test system: TK-10
SNB-75 = test system: SNB-75
HT-29 = test system: HT-29
COLO 205 = test system: COLO 205
CAKI-1 = test system: CAKI-1
SK-MEL-2 = test system: SK-MEL-2
SN12C = test system: SN12C
M14 = test system: M14
MOLT-4 = test system: MOLT-4
NCI-H226 = test system: NCI-H226

Measured: GI50

C=C1C(=O)O[C@H]2[C@H]1[C@H](OC(=O)/C(C)=C\C)CC(=C)[C@@H]1[C@H](O)[C@H]3O[C@@]3(C)[C@@]12O [EUPATUNDIN]
inactive: 786-0 > 100 µM | K562 > 100 µM | UO-31 > 100 µM | SK-OV-3 > 100 µM | SNB-19 > 100 µM | SF-268 > 100 µM | TK-10 > 100 µM | SNB-75 > 100 µM | HT-29 > 100 µM | COLO 205 > 100 µM | CAKI-1 > 100 µM | SK-MEL-2 > 100 µM | SN12C > 100 µM | M14 > 100 µM

CN(C)CC(=O)N1CCc2c([nH]c3ccccc23)C1c1cccnc1 (stereo not given)
inactive: 786-0 > 100 µM | K562 > 100 µM | UO-31 22.5 µM | SK-OV-3 > 100 µM | SNB-19 > 100 µM | SF-268 > 100 µM | TK-10 > 100 µM | MOLT-4 > 100 µM | SNB-75 65 µM | HT-29 > 100 µM | CAKI-1 > 100 µM | SN12C > 100 µM | M14 > 100 µM

O=C(O)C(CS)Nc1c2ccccc2[n+]([O-])c2ccccc12 (stereo not given)
inactive: 786-0 > 100 µM | K562 78.9 µM | UO-31 49.8 µM | SK-OV-3 > 100 µM | SNB-19 > 100 µM | SF-268 > 100 µM | NCI-H226 > 100 µM | TK-10 > 100 µM | MOLT-4 > 100 µM | SNB-75 > 100 µM | HT-29 > 100 µM | COLO 205 > 100 µM | CAKI-1 > 100 µM | SK-MEL-2 > 100 µM | SN12C > 100 µM | M14 > 100 µM

CSC1=NC=CCN1C
inactive: 786-0 > 100 µM | K562 > 100 µM | UO-31 > 100 µM | SK-OV-3 > 100 µM | SNB-19 > 100 µM | SF-268 > 100 µM | NCI-H226 > 100 µM | TK-10 > 100 µM | MOLT-4 > 100 µM | SNB-75 > 100 µM | HT-29 > 100 µM | COLO 205 > 100 µM | CAKI-1 > 100 µM | SK-MEL-2 > 100 µM | SN12C > 100 µM | M14 > 100 µM

CCCCCCCC/C=C1\CCC(CN(C)C)C1=O (stereo not given)
inactive: 786-0 1.53 µM | K562 2.51 µM | UO-31 11 µM | SK-OV-3 17.2 µM | SNB-19 16.7 µM | SF-268 7.29 µM | NCI-H226 22.3 µM | TK-10 2.54 µM | MOLT-4 2.68 µM | SNB-75 5.25 µM | HT-29 4.35 µM | COLO 205 4.16 µM | CAKI-1 3.1 µM | SK-MEL-2 12 µM | SN12C 4.02 µM | M14 4.88 µM
